# Measured values reported in patent US20130072506A1, “6,8-DISUBSTITUTED PURINE COMPOSITIONS” (priority 2011, published 2013).
# Columns and labels:
# [1] = system: mitochondria of ASF-2 cells; assay: JC-1 staining of mitochondria; format: cell-based, human; settings: 3 days pre-treatment of dermal fibroblasts
# Method: All cell culture experiments were performed on early and mid passage cultures (about 20 to 40% lifespan completed) of normal human skin fibroblast line, designated ASF-2. In order to check the effects of test compounds on senescent cells, late passage cells with more than 90% lifespan completed were used. ASF-2 cell line was established from a mammary skin biopsy obtained from a young, non-smoking and healthy […] at the time of breast reduction operation. Normal culture conditions of medium (DMEM) containing antibiotics, 10% foetal calf serum, and incubation at 37° C. with 95% humidity were used. The effects of the test compounds were determined using the following procedures.
# Briefly, stock solution of JC-1 (Sigma, M2128) was made at 1 mg/ml in dimethyl sulfoxide. Fresh staining solution […] was prepared by diluting the stock solution in warm (37° C.) culture medium supplemented with 10% calf serum (final conc. 1 μg/ml). Around 3000 cells/ml were seeded in 4 chambered flasks. After three days of incubation, medium is aspirated and one ml of JC-1 staining medium is added, after incubation for 10 mins a cover slip is quickly added and viewed under fluorescent microscope at excitation wavelengths of 488 and 647 nm. […] On depolarization, the orange red punctate staining is replaced by diffuse green monomer fluorescence.
# SKH-1 hairless mice [2] = assay: Hairless mouse assay: skin moisture content; format: in vivo; settings: course over 3 weeks of topical treatment
# Excerpt: Evaluation of cutaneous effects of new topical compounds in the hirless mouse assay. The purpose of this study was to evaluate new topical compounds for their safety and efficacy as topical skin anti-aging treatments. The hairless mouse model is a well established model for studying the treatments of photoaging. […] The present study was used to investigate a new class of anti-aging compounds in comparison to classical ones. […] Topical compounds and vehicle controls were be applied daily (Monday-Friday) for 3 weeks to the dorsal skin of hairless mice. At baseline (prior to the 1st treatment), and weekly, the dorsal skin was measured for: transepidermal water loss (TEWL); skin moisture content; and skin elasticity.
# (§1) Experimental Design. 48 female SKH-1 hairless mice (5 weeks old, 20-25 grams, Charles River Laboratories, Wilmington, Mass.) are individually housed in filter-top cages, and acclimated for 5-7 days after delivery. The mice are divided into 8 treatment groups (n=6), including two different control groups (untreated control, vehicle control) and a therapeutic control (tretinoin 0.05% Renova™ cream). Cage cards are marked to indicate treatment groups 1-8. Water and mouse chow are provided ad libitum.
# Skin Moisture Content & Elasticity. The measurements of skin moisture content and skin elasticity are important noninvasive methods used to characterize the effects of moisturizers and anti-wrinkle effects on skin. A DermaLab™ combination instrument were used to measure the skin moisture content and elasticity of the target skin sites at baseline and at weekly intervals. This instrument is equipped with dual probes which are placed on the skin surface and a quantitative measurement taken of the respective parameters and the measurements recorded on an integrated computer. Mean measurements was determined for each treatment group over time, and comparative statistics used to evaluate product effectiveness.
# (§2) Topical Treatments. Beginning on Treatment Day 1, test products are applied topically each morning (Monday through Friday) after erythema evaluations for 3 weeks. Using a positive displacement pipette, 20 mg of each agent is applied to a 2 cm×2 cm area of the center midline of the back. The material was spread across the treatment area with the pipette tip.
# [3] = clinical experience / previous clinical studies; cited from earlier work
# SKH-1 hairless mice [4] = assay: Hairless mouse assay: epidermal bromodeoxyuridine (BrdU) staining; format: in vivo; settings: after 3 weeks of topical treatment
# Excerpt: This study determined the effect of topical compound formulations on epidermal cell proliferation using bromodeoxyuridine as an immunohistochemical marker of cell proliferation. Histological examination of the treated and control skin were used to determine cutaneous effects of the topical compounds. Topical tretinoin 0.05% (Renova™) was used as a therapeutic control.
# as §1, §2
# Bromodeoxyuridine Injection. All animal groups are injected with bromodeoxyuridine (100 mg/kg) I.P. 4 hours after the final application. Animals are sacrificed by CO2 inhalation 3 hours later followed by cervical dislocation. The test sites are excised, and 6 mm punch biopsies are obtained from each treatment site, and from untreated controls. Biopsies are placed into labeled vials containing 4% neutral buffered formalin for paraffin embedding and anti-BrdU staining.
# Bromodeoxyuridine Immunohistochemical Staining. Paraffin sections are cut to a […] thickness and stained using the BrdU Immuno-histochemistry kit (X1545K from Exalpha Biologicals, Inc.) and a standard staining protocol. The slides are weakly counterstained in Mayer's hematoxylin and scored under a light microscope for the number of BrdU-positive cells per mm of epidermis for each section. The data are expressed as mean BrdU-positive cells/mm for each treatment group. Differences in BrdU labeling in the treatment groups are statistically analyzed using the Students t-test. Representative photographs are taken of the histological sections of the BrdU-positive staining cells.
# SKH-1 hairless mice [5] = assay: Hairless mouse assay: skin histology and skin compartment measurements; format: in vivo; settings: after 3 weeks of treatment
# Excerpt: as §1, §2
# Skin Histology. Skin biopsies are taken of each treatment site and untreated control skin. Biopsies are fixed in 4% neutral buffered formalin, embedded in paraffin, and stained with hematoxylin and eosin. The stained skin sections are examined to determine the effects of the treatment on epidermal, dermal, and stratum corneum histology. Biopsies are also microscopically examined for inflammatory cells.
# Skin Compartment Measurements. The H&E stained biopsy slides were imaged using a trinocular Olympus BH-2 microscope fitted with a Microfire 2.1×3 Digital Camera. 100× images were digitized and stored on CD using MS Pictureframe and Microfire Software. All compartment images were measured using a calibrated micrometer. An average of three measurements of each compartment for two slide images per biopsy was obtained and tabulated, and means and standard deviations were calculated.
# SKH-1 hairless mice [6] = assay: Hairless mouse assay: erythema scoring (skin irritation); format: in vivo; parameters: key: 0: No response; 1: Very slight redness; 2: Slight redness; 3: Moderate redness/irritation; 4: Severe redness/irritation; 5: Very severe redness/irritation; 6: Necrosis; settings: topical, daily, 1 to 3 weeks
# Excerpt: Evaluation of cutaneous effects of new topical compounds in the hirless mouse assay. The purpose of this study was to evaluate new topical compounds for their safety and efficacy as topical skin anti-aging treatments. The hairless mouse model is a well established model for studying the treatments of photoaging. This model has been used to study mechanisms, define effective treatment regimens and assess safety for retinoids and other anti-aging products. The present study was used to investigate a new class of anti-aging compounds in comparison to classical ones. Recent clinical studies have shown that this class of compounds improve the appearance of photodamaged skin and decrease transepidermal water loss (TEWL) without causing skin irritation. This study investigated the mechanisms of how these compounds affect the skin aging process and help to identify new compounds which are safe and effective for preventing and improving the clinical features of photoaged skin. Topical compounds and vehicle controls were be applied daily (Monday-Friday) for 3 weeks to the dorsal skin of hairless mice. At baseline (prior to the 1st treatment), and weekly, the dorsal skin was measured for: transepidermal water loss (TEWL); skin moisture content; and skin elasticity.
# Experimental Design. […]
# Technical staff recorded erythema scores for all animals each morning. […]
SMILES,JC-1 staining [1],skin moisture content (skin conductance) (SKH-1 hairless mice [2]),TEWL [3],epidermal BrdU staining (SKH-1 hairless mice [4]),skin compartment thickness (SKH-1 hairless mice [5]; H&E stained biopsies),histological evaluation of skin biopsies (SKH-1 hairless mice [5]),Erythema score (Grade) (SKH-1 hairless mice [6])
"CN[C@@H]1C[C@H]2O[C@@](C)([C@@H]1OC)n1c3ccccc3c3c4c(c5c6ccccc6n2c5c31)C(=O)NC4 [staurosporine, reference compound]",drastically reduced the uptake of JC-1 and J-aggregate formation,–,–,–,–,–,–
CC1=C(/C=C/C(C)=C/C=C/C(C)=C/C(=O)O)C(C)(C)CCC1 [tretinoin],–,significant decrease,increase in TEWL,no epidermal BrdU staining,increased both epidermal and dermal thickness,marked increased thickness of the epidermis and inflammatory changes in the dermis,3
